Data as given in patent US20260138958A1, “SUBSTITUTED N-PHENYLURACILS AND SALTS THEREOF, AND USE THEREOF AS HERBICIDAL ACTIVE SUBSTANCES” (Bayer Aktiengesellschaft, priority 2022, published 2026).
Each block holds one molecule with its values, some of them ahead of it.

Experiments:
Assay type in all cases: in vivo
[1] = test system: Abutilon theophrasti (ABUTH); test: Post-emergence herbicidal action, greenhouse pot test; details: Abutilon theophrasti, 504 h
How it was run: (§1)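 Weeds grown in sandy loam under controlled greenhouse conditions were sprayed at the one-leaf stage, 2 to 3 weeks after sowing, with WP or EC formulations as aqueous suspension or emulsion plus 0.5% additive at 600 l/ha water. Damage was scored visually after about 3 weeks versus untreated controls (0% = like control, 100% = dead).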

[2] = test system: Alopecurus myosuroides (ALOMY); test: as above
How it was run: as §1

[3] = test system: Amaranthus retroflexus (AMARE); test: as above; details: Amaranthus retroflexus, 504 h
How it was run: as §1

[4] = test system: Echinochloa crus-galli (ECHCG); test: as above
How it was run: as §1

[5] = test system: Pharbitis purpurea (PHBPU); test: as above; details: Ipomoea purpurea, 504 h
How it was run: as §1

[6] = test system: Polygonum convolvulus (POLCO); test: as above; details: Fallopia convolvulus, 504 h
How it was run: as §1

[7] = test system: Setaria viridis (SETVI); test: as above; details: Setaria viridis, 504 h
How it was run: as §1

[8] = test system: Tripleurospermum inodorum (MATIN); test: as above; details: Tripleurospermum inodorum, 504 h, 20 g/ha, read-out: Post-emergence effect at 20 g/ha against MATIN in %
How it was run: as §1

[9] = test system: Veronica persica (VERPE); test: as above; details: Veronica persica, 504 h
How it was run: as §1

[10] = test system: Viola tricolor (VIOTR); test: as above; details: Viola tricolor, 504 h, 20 g/ha, read-out: Post-emergence effect at 20 g/ha against VIOTR in %
How it was run: as §1

[11] = test system: Glycine max (GLXMA); test: Post-emergence crop plant compatibility, greenhouse pot test; details: Glycine max, in vivo
How it was run: (§2)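 Visual % damage scores were taken roughly 3 weeks after treatment, relative to untreated plants, where 100% means plants died and 0% means no difference. Plants received aqueous sprays (WP or EC, 0.5% additive, 600 l/ha) on green parts at the one-leaf stage, 2–3 weeks after sowing.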

[12] = test system: Oryza sativa (ORYSA); test: as above; details: Oryza sativa, in vivo
How it was run: as §2

[13] = test system: Triticum aestivum (TRZAS); test: as above; details: Triticum aestivum, in vivo
How it was run: as §2

[14] = test system: Zea mays (ZEAMX); test: as above; details: Zea mays, in vivo
How it was run: as §2

[15] = test system: Avena fatura (AVEFA); test: Comparative post-emergence herbicidal action, greenhouse pot test; details: Table B3 comparison, application rate 20 g/ha
Description: Seeds of monocotyledonous and dicotyledonous weeds and crop plants were placed in sandy loam in plastic or wood-fibre pots, covered with soil and cultivated in a greenhouse under controlled growth conditions. 2 to 3 weeks after sowing, the test plants were treated at the one-leaf stage. The compounds of the invention, formulated in the form of wettable powders (WP) or as emulsion concentrates (EC), were then sprayed onto the green parts of the plants as aqueous suspension or emulsion with addition of 0.5% additive at a water application rate of 600 l/ha (converted). After the test plants had been kept in the greenhouse under optimum growth conditions for about 3 weeks, the activity of the preparations was rated visually in comparison to untreated controls. For example, 100% activity=the plants have died, 0% activity=like control plants.
Tables B1-B5 below show the effects of inventive compounds (I.7-12, I.7-14, I.7-16) that have been obtained by the test method specified above on various harmful plants at an application rate corresponding to 20 g/ha or lower by comparison with structurally similar compounds known from the literature (“a-27”, “a-29”, disclosed in WO2002/098227).

Post-emergence effect at 1.25 g/ha against GLXMA in % [11]: 0%
Post-emergence effect at 1.25 g/ha against ORYSA in % [12]: 0%
Post-emergence effect at 5 g/ha against ORYSA in % [12]: 0%
Post-emergence effect at 20 g/ha against ORYSA in % [12]: 20%
Post-emergence effect at 1.25 g/ha against TRZAS in % [13]: 0%
Post-emergence effect at 20 g/ha against TRZAS in % [13]: 0%
Post-emergence effect at 1.25 g/ha against ZEAMX in % [14]: 0%
SMILES: Cn1c(C(F)(F)F)cc(=O)n(-c2cc(Oc3ccccc3OCC(=O)OCC3CC3)c(Br)cc2F)c1=O [I.8-1, Cyclopropylmethyl (2-{2-bromo-4-fluoro-5-[3-methyl-2,6-dioxo-4-(trifluoromethyl)-3,6-dihydropyrimidin-1(2H)-yl]phenoxy}phenoxy)acetate]
pest or weed control at 5 g/ha ([1]; 5 g/ha, read-out: Post-emergence effect at 5 g/ha against ABUTH in %): 100%
pest or weed control at 20 g/ha ([1]; 20 g/ha, read-out: Post-emergence effect at 20 g/ha against ABUTH in %): 100%
pest or weed control at 20 g/ha ([2]; Alopecurus myosuroides, 504 h, 20 g/ha, read-out: Post-emergence effect at 20 g/ha against ALOMY in %): 100%
pest or weed control at 1.25 g/ha ([3]; 1.25 g/ha, read-out: Post-emergence effect at 1.25 g/ha against AMARE in %): 100%
pest or weed control at 5 g/ha ([3]; 5 g/ha, read-out: Post-emergence effect at 5 g/ha against AMARE in %): 100%
pest or weed control at 20 g/ha ([3]; 20 g/ha, read-out: Post-emergence effect at 20 g/ha against AMARE in %): 100%
pest or weed control at 20 g/ha ([4]; Echinochloa crus-galli, 504 h, 20 g/ha, read-out: Post-emergence effect at 20 g/ha against ECHCG in %): 100%
pest or weed control at 5 g/ha ([5]; 5 g/ha, read-out: Post-emergence effect at 5 g/ha against PHBPU in %): 80%
pest or weed control at 20 g/ha ([5]; 20 g/ha, read-out: Post-emergence effect at 20 g/ha against PHBPU in %): 100%
pest or weed control at 5 g/ha ([6]; 5 g/ha, read-out: Post-emergence effect at 5 g/ha against POLCO in %): 100%
pest or weed control at 20 g/ha ([6]; 20 g/ha, read-out: Post-emergence effect at 20 g/ha against POLCO in %): 100%
pest or weed control at 5 g/ha ([7]; 5 g/ha, read-out: Post-emergence effect at 5 g/ha against SETVI in %): 100%
pest or weed control at 20 g/ha ([7]; 20 g/ha, read-out: Post-emergence effect at 20 g/ha against SETVI in %): 100%
pest or weed control at 20 g/ha [8]: 100%
pest or weed control at 5 g/ha ([9]; 5 g/ha, read-out: Post-emergence effect at 5 g/ha against VERPE in %): 100%
pest or weed control at 20 g/ha ([9]; 20 g/ha, read-out: Post-emergence effect at 20 g/ha against VERPE in %): 100%
pest or weed control at 20 g/ha [10]: 100%

SMILES: Cn1c(C(F)(F)F)cc(=O)n(-c2cc(Oc3ccccc3OCC(=O)OC3CCCC3)c(Cl)cc2F)c1=O [a-27, reference compound]
ALOMY (efficacy in %) ([2]; Table B1 comparison, application rate 20 g/ha): 80%
ECHCG (efficacy in %) ([4]; Table B2 comparison, application rate 1.25 g/ha): 30%
AVEFA (efficacy in %) [15]: 40%
